Test: Storage stability of [^125I] 5 in the refrigerator
Type: physicochemical
Conditions: 4 °C, storage time over which compound found stable

stable in the refrigerator (no hydrolysis): more than 6 months
SMILES: O=CCCCNC(=O)c1ccc([125I])cc1 [[^125I] 5]
